US11518981B2, “Methods of enhancing engraftment activity of hematopoietic stem cells” (CHILDREN'S HOSPITAL MEDICAL CENTER, priority 2017, dated 2022)

Legend:
CD34^+38^−90^+ HSCs = assay: cell cycle analysis (Ki-67 / Hoechst) of HSCs; format: cell-based, human; conditions: 72 h, RV transduced cycling HSCs; MK-8776 1 μM, PV1019 1 μM, PGE2 10 μM, Birb 796 600 nM
HIF-1α = HIF-1α staining in HSCs (immunofluorescence, flow cytometry); format: cell-based, human; conditions: 72 h, RV transduced CD34^+38^−90^+ cells
Source text: FACS sorted CD34+38−90+ cells were fixed in 2% paraformaldehyde and permeabilized using 0.1% TRITON™ X-100 (Alkaryl polyether alcohol, Sigma-Aldrich). Cells were then stained with primary antibodies Anti-phospho-H2AX (Ser 139) (Millipore, 05-636), anti-53BP1 antibody (Novus Biologicals, NB100-904), or anti-HIF-1α (ab103063). For secondary antibodies, Alexa Fluor 594 conjugated Goat anti-Rabbit IgG (H+L) (A-11037) or, ALEXA FLUOR® 647 conjugated Goat anti-Rabbit IgG (H+L) (A-21245) (both from ThermoFisher Scientific) were used for 1 hour at 37° C. Cells were counterstained and mounted with […]® antifade mounting medium with DAPI (H-1200 Vector Laboratories). Images were obtained using a Nikon 90i upright microscope.

γH2AX = assay: DNA damage response (γH2AX, 53BP1) by immunofluorescence and flow cytometry; format: cell-based, human; conditions: 72 h, RV transduced cycling HSCs
Description: For EdU incorporation assay, cells were incubated with 10 μM EdU throughout the culture period and the CLICK-IT® Plus EdU Pacific Blue Flow Cytometry Assay Kit (ThermoFisher Scientific C10636) was used for staining. […] Samples were run through a FACSCANTOTM, FORTESSATM, or LSR 2 flow cytometers (BD Biosciences), and the data was analyzed by […] software (BD). […] II cell sorter. FACS sorted CD34+38-90+ cells were fixed in 2% paraformaldehyde and permeabilized using 0.1% […] polyether alcohol, Sigma-Aldrich). […] Cells were counterstained and mounted with […]® antifade mounting medium with DAPI (H-1200 Vector Laboratories). Images were obtained using a Nikon 90i upright microscope.

[1] = tested on: human MPB derived CD34^+ cells; assay: multi-lineage reconstitution (myeloid / B-lymphoid) in bone marrow of NSG mice; format: in vivo; conditions: limiting dilution transplant, 42 h LV; 6 mo post 1 T
Source text: NOD.Cg-Prkdcscid Il2rgtm1Wjl/SzJ (NSG) mice were purchased from The Jackson Laboratory (Bar Harbor, Me.). All animals were bred and maintained in a specific pathogen-free environment and all experiments were approved by the Institutional Animal Care and Use (IACUC) Committee. Male and female NSG mice aged 8 to 14 weeks old were fed doxycycline chow (TestDiet; Modified Prolab RMH-1500 with 0.0625% doxycycline) a week prior to, during and for 2 weeks post irradiation. Human engraftment was analyzed in bone marrow (BM), via BM aspirates performed at 6 and 12 weeks from left and right femurs. After sacrifice at 24 weeks, marrow from all of the primary mice (1 T) was harvested. Peripheral blood analysis was also performed in some experiments. Secondary transplants (2 T) were performed after mouse CD45^+ cells were depleted from BM harvested from each 1 T mouse separately, using Biotin Rat Anti-Mouse CD45 (BD Biosciences 553078) and Streptavidin Particles Plus-DM (BD Biosciences 557812) and injected into one irradiated (280 cGy) secondary NSG mouse. For calculating competitive repopulating units (CRU) from limiting dilution transplantation, the L-CALC^TM software (Stem Cell Technologies) was used. All of the mice used for this study were randomly assigned to a treatment group. No animals were excluded from the analysis. PE-Cyanine 7 or APC-EFLUOR® 780, APC- or PE-conjugated antibodies directed to human CD34 (BD Biosciences 560710 or 555824), CD38 (eBiosciences, San Diego, Calif. 47-0389-42), CD90 (BioLegend 328120), CD45RA (eBiosciences 17-0458-42), CD49f (BD Biosciences 555736), CD45 (BD 55485 or Biolegend 304026), CD33 (eBiosciences 25-0338-42), CD19 (BD Biosciences 557791), or CD3 (BD Biosciences 555340). Cells ( 5×10^5-1×10^6) were used to label with antibodies as per manufacturer instructions with the appropriate isotype controls. For phospho-flow, primary antibodies phospho-[…]), phospho-p44/42 MAPK (ERK 1⁄2) […]; […]), and phospho-JNK […] PE conjugate; […]) (all from Cell Signaling) were used for staining overnight followed by wash and secondary antibody stain including Goat anti-Rabbit IgG (H+L) or Goat anti-Rabbit IgG (H+L) or Pacific Blue (P-10994) antibody. Apoptosis assay was performed using PE Annexin V Apoptosis Detection Kit (BD Biosciences 559763) according to the manufacturer's instructions. Total ROS and mitochondrial specific ROS were detected using 10 μM CM-H2DCFDA (ThermoFisher Scientific C6827) and 5 μM MITOSOXTM Red (Red Mitochondrial Superoxide Indicator) (ThermoFisher Scientific M36008) respectively, following manufacturer's instructions.

human CD34^+ cells = assay: GFP marking in human grafts of NSG mice; format: in vivo; conditions: limiting dilution transplant; also long-termed secondary human grafts
Source text: NOD.Cg-Prkdcscid Il2rgtm1Wjl/SzJ (NSG) mice were purchased from The Jackson Laboratory (Bar Harbor, Me.). All animals were bred and maintained in a specific pathogen-free environment and all experiments were approved by the Institutional Animal Care and Use (IACUC) Committee. Male and female NSG mice aged 8 to 14 weeks old were fed doxycycline chow (TestDiet; Modified Prolab RMH-1500 with 0.0625% doxycycline) a week prior to, during and for 2 weeks post irradiation. Human engraftment was analyzed in bone marrow (BM), via BM aspirates performed at 6 and 12 weeks from left and right femurs. After sacrifice at 24 weeks, marrow from all of the primary mice (1 T) was harvested. Peripheral blood analysis was also performed in some experiments. Secondary transplants (2 T) were performed after mouse CD45^+ cells were depleted from BM harvested from each 1 T mouse separately, using Biotin Rat Anti-Mouse CD45 (BD Biosciences 553078) and Streptavidin Particles Plus-DM (BD Biosciences 557812) and injected into one irradiated (280 cGy) secondary NSG mouse. […] Total ROS and mitochondrial specific ROS were detected using 10 μM CM-H2DCFDA (ThermoFisher Scientific C6827) and 5 μM MITOSOXTM Red (Red Mitochondrial Superoxide Indicator) (ThermoFisher Scientific M36008) respectively, following manufacturer's instructions.

Structure (SMILES) | transduced HSCs accumulated in the G2M phase (CD34^+38^−90^+ HSCs) | HIF-1α levels in cycling transduced HSCs (HIF-1α) | γH2AX levels in the transduced HSCs (γH2AX) | lineage skewing [1] | GFP marking (human CD34^+ cells)
Cn1cc(-c2cnn3c(N)c(Br)c([C@@H]4CCCNC4)nc23)cn1 [Chk1i] | Fewer transduced-HSCs were found to accumulate in the G2M phase with Chk1i (albeit not statistically significant) | – | – | – | –
CCCCC(C)(C)[C@H](O)/C=C/[C@H]1[C@H](O)CC(=O)[C@@H]1C/C=C\CCCC(=O)O [PGE2, 16,16 dimethyl Prostaglandin E2] | tended to reduce | could be stabilized | no effect | sufficient to restore the lineage skewing | did not have any effect
